Where two headings read alike, the source gives them in different places.
Legend:
[1] = target: T1, α1A Human Adrenergic Receptor (Homo sapiens, UniProt P25100); assay: Radioligand binding, [3H]prazosin, cloned human α1A adrenergic receptor
T1 construct: The entire coding region of α1A (1719 bp); expressed in transfected cells
T1 sequence (P25100 1-572): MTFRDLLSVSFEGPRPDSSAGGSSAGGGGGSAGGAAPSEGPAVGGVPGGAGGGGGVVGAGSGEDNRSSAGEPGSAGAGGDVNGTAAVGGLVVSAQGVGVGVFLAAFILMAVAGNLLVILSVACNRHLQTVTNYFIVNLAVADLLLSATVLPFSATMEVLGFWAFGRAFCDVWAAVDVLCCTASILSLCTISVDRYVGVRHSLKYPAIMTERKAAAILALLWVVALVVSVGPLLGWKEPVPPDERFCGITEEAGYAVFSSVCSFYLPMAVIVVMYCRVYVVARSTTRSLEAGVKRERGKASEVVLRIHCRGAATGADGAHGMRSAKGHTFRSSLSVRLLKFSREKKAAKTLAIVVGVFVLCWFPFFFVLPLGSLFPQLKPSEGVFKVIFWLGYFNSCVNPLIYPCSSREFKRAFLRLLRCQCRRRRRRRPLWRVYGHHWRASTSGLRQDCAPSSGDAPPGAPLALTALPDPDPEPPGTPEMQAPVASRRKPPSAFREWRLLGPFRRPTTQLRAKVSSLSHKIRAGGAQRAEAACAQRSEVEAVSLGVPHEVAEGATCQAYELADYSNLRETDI
Summary of the method: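 Filter-bound radioactivity measured [3H]prazosin (0.5 nM) binding to membranes of LM(tk−) cells expressing the human α1A receptor after 20 min at 37° C. Phentolamine at 10 μM set nonspecific binding.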

[2] = target: T2, α1C Human Adrenergic Receptor (Homo sapiens, UniProt P35348); assay: Radioligand binding, [3H]prazosin, cloned human α1C adrenergic receptor
T2 construct: The entire coding region of α1C (1401 bp); expressed in transfected cells
T2 sequence (P35348 1-466): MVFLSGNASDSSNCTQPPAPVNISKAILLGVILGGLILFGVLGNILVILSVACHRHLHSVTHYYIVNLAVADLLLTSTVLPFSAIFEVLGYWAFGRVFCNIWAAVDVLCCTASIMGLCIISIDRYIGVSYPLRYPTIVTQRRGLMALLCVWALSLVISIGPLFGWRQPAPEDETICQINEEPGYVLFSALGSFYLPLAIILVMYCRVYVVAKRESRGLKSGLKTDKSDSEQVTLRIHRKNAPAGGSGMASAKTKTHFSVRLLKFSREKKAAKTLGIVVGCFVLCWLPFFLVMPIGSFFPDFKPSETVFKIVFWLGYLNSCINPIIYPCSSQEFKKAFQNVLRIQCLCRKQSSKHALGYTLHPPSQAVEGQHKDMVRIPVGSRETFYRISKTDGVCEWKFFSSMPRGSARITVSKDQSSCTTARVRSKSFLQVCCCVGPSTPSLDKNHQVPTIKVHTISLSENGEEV
Summary of the method: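 Membranes from LM(tk−) cells stably expressing the cloned human α1C receptor were incubated with 0.5 nM [3H]prazosin at 37° C. for 20 min in 50 mM Tris-HCl, 1 mM MgCl2, 0.1% ascorbic acid, pH 7.5. Nonspecific binding was defined with 10 μM phentolamine, and bound ligand was separated by GF/B filtration.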

L-type calcium channel = target: T3, L-type calcium channel (Rattus norvegicus, UniProt P22002); assay: Competition binding of [3H]nitrendipine to membrane fragments of rat cardiac muscle
T3 construct: membrane fragments of rat cardiac muscle; from tissue; host or cells: rat cardiac muscle membranes

[3] = [3H]prazosin, cloned human receptor, LM(tk-) cell membranes, mean, read-out: PKi alpha-1 1a (converted)
[4] = cloned human receptor, LM(tk-) cell membranes, mean, read-out: PKi alpha-1 1c (converted)
[5] = [3H]nitrendipine, rat cardiac muscle membranes, mean, read-out: PKi Ca (converted)
[6] = cloned human α1C receptor, LM(tk-) cell membranes, read-out: PKi alpha-1 1c (converted)

T3 sequence (P22002 whole entry, other chains not shown, the tested form may be a part): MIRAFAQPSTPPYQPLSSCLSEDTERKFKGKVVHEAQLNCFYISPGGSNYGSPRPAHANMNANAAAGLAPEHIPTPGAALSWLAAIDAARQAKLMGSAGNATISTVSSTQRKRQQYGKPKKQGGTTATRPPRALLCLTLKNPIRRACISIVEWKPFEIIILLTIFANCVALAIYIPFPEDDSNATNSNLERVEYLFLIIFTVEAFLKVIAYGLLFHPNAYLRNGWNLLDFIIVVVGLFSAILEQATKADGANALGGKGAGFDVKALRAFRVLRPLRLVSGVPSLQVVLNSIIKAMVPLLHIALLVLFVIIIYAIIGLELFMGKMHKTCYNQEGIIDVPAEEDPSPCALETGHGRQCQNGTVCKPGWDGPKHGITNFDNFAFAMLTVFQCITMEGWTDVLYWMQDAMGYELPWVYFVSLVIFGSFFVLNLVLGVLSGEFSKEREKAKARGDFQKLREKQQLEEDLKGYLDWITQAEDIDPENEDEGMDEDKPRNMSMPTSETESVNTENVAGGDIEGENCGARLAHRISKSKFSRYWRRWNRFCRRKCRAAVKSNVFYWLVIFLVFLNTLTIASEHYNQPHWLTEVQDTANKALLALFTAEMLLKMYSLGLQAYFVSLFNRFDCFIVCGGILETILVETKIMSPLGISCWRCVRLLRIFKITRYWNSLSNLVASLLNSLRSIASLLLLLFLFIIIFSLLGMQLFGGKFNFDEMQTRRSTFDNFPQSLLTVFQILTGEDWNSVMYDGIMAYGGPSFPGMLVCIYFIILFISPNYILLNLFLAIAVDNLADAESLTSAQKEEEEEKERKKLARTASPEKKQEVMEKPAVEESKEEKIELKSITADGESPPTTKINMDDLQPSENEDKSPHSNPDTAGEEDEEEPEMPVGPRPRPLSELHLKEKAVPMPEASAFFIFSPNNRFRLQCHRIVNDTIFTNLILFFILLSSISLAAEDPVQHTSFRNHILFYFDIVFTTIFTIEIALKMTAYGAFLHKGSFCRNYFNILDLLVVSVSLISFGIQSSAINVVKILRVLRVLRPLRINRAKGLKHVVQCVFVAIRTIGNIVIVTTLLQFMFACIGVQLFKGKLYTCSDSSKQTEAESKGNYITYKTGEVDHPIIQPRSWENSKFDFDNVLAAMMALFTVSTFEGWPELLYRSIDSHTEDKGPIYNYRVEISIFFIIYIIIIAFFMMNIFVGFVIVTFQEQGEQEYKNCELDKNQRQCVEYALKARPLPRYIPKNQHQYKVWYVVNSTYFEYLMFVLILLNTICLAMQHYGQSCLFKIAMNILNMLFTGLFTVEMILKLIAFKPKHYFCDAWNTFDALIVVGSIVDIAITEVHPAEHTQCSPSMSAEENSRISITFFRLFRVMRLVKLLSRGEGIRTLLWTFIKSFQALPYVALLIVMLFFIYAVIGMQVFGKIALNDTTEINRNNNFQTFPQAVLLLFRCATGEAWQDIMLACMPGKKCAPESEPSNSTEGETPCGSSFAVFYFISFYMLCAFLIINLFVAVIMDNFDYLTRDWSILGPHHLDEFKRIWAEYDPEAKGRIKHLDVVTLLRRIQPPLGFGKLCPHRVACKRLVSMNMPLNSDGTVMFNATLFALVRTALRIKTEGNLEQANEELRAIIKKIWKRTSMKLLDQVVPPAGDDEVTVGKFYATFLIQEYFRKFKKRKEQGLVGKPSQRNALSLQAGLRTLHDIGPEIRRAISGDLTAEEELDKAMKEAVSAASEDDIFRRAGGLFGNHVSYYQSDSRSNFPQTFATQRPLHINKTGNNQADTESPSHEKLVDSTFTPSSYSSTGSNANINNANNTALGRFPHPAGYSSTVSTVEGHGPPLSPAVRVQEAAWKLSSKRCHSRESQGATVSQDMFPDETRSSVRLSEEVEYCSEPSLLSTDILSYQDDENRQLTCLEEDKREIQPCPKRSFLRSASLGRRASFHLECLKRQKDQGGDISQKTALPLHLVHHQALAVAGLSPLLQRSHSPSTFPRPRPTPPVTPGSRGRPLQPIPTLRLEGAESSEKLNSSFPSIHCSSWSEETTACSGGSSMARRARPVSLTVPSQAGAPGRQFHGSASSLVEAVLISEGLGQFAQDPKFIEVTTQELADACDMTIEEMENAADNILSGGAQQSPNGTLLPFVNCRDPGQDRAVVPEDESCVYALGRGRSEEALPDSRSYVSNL
T3 sequence (P54290 25-944 partner limits assumed, other chains not shown): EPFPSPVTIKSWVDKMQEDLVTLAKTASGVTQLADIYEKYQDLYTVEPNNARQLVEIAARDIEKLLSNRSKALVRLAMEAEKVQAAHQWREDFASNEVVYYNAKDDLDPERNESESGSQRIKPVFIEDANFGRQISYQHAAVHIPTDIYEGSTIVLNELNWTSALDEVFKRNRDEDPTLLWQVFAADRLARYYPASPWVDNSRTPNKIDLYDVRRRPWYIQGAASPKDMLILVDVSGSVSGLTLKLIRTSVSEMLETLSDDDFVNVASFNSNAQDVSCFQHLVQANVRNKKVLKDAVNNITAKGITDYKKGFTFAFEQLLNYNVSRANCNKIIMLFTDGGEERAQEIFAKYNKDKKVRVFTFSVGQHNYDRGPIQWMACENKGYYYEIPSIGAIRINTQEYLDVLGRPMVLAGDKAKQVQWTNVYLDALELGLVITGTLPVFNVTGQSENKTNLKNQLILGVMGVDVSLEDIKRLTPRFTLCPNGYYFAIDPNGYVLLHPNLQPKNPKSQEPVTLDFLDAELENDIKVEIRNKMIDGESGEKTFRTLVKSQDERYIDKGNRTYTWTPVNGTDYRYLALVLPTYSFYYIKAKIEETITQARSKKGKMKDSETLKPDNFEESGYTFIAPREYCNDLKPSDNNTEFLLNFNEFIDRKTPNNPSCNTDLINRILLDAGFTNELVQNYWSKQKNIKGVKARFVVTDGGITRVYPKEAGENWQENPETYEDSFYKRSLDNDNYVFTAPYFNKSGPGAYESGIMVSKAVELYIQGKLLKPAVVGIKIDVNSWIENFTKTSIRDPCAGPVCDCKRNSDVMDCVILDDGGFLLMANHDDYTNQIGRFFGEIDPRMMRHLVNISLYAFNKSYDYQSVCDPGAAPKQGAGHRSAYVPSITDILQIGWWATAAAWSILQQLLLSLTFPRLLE
T3 sequence (P54290 945-1091 partner limits assumed, other chains not shown): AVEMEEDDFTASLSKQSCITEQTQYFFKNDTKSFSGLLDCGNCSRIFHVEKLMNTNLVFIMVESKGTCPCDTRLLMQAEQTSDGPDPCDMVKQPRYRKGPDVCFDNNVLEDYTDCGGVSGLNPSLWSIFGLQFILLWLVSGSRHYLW

Compound | melting point | Ki [2, 4] [nM] | Ki ([1]; PKi alpha-1 1a) [nM] | Ki (L-type calcium channel; PKi Ca) [nM] | further results
CCC1=C(C(N)=O)C(c2ccc([N+](=O)[O-])cc2)C(C(=O)NCCCN2CCC(c3ccccc3)CC2)=C(CC)N1 (centres unmarked) [Example 121, 5-Carboxamido-2,6-diethyl-1,4-dihydro-4-(4-nitrophenyl)-3-{N-[3-(4-phenylpiperidin-1-yl)propyl]}carboxamidopyridine] | 90 to 101 °C | – | – | – | Ki ([1]; [3H]prazosin, cloned human α1A receptor, LM(tk−) cell membranes, read-out: pKi alpha-1 1a (converted)): 240 nM; Ki ([2]; cloned human α1C receptor, LM(tk−) cell membranes, read-out: pKi alpha-1 1c (converted)): 1.32 nM; Ki (L-type calcium channel; [3H]nitrendipine, rat cardiac muscle membrane fragments, L-type calcium channel, read-out: pKi Ca (converted)): 16600 nM
CCC1=C(C(N)=O)C(c2ccc([N+](=O)[O-])cc2)C(C(=O)NCCCN2CCC(C(=O)OC)(c3ccccc3)CC2)=C(CCCCN)N1 (centres unmarked) [Example 166, 2-(4-Aminobutyl)-5-carboxamido-6-ethyl-1,4-dihydro-3-{N-[3-(4-methoxycarbonyl-4-phenylpiperidin-1-yl)propyl]}carboxamido-4-(4-nitrophenyl)pyridine] | 75 to 78 °C | 1.29 | – | – | Ki [1, 3]: 2340 nM; Ki (L-type calcium channel; [5]): 132000 nM
COC(=O)C1=C(C)NC(CCCCN)=C(C(=O)NCCCN2CCC(c3ccccc3)(c3ccccc3)CC2)C1c1ccc([N+](=O)[O-])cc1 (centres unmarked) [Example 170, 2-(4-Aminobutyl)-1,4-dihydro-5-methoxycarbonyl-6-methyl-4-(4-nitrophenyl)-3-{N-[3-(4,4-diphenylpiperidin-1-yl)propyl]}carboxamidopyridine] | 89 to 93 °C | 1.26 | 295 | 2400 | –
CCC1=C(C(N)=O)C(c2ccc([N+](=O)[O-])cc2)C(C(=O)NCCCN2CCC(c3ccccc3)(c3ccccc3)CC2)=C(CCCCN)N1 (centres unmarked) [Example 171, 2-(4-Aminobutyl)-5-carboxamido-6-ethyl-1,4-dihydro-4-(4-nitrophenyl)-3-{N-[3-(4,4-diphenylpiperidin-1-yl)propyl]}carboxamidopyridine] | 85 to 89 °C | – | – | – | Ki ([1]; PKi alpha-1 1a, [3H]prazosin, cloned human receptor, LM(tk-) cell membranes, mean): 1050 nM; Ki ([2]; PKi alpha-1 1c, cloned human receptor, LM(tk-) cell membranes, mean): 1.74 nM; Ki (L-type calcium channel; [5]): 18600 nM
COC(=O)C1(c2ccccc2)CCN(CCCNC(=O)C2=C(CCCCN)NC(C)=C(C(N)=O)C2c2ccc([N+](=O)[O-])cc2)CC1 (centres unmarked) [Example 177, 2-(4-Aminobutyl)-5-carboxamido-1,4-dihydro-3-{N-[3-(4-methoxycarbonyl-4-phenylpiperidin-1-yl)propyl]}carboxamido-6-methyl-4-(4-nitrophenyl)pyridine] | 81 to 84 °C | 4.68 | 1410 | 93300 | –
CCNC(=O)C1=C(CC)NC(CC)=C(C(=O)NCCCN2CCC(C(=O)OCC)(c3ccccc3)CC2)C1c1ccc([N+](=O)[O-])cc1 (centres unmarked) [Example 182, 2,6-Diethyl-1,4-dihydro-3-{N-[3-(4-ethoxycarbonyl-4-phenylpiperidin-1-yl)propyl]}carboxamido-5-(N-ethyl)carboxamido-4(4-nitrophenyl)pyridine] | 103 to 104 °C | 2.24 | 3390 | 355000 | –
CCOC(=O)C1(c2ccccc2)CCN(CCCNC(=O)C2=C(COCCN)NC(CC)=C(C(=O)OC)C2c2ccc([N+](=O)[O-])cc2)CC1 (centres unmarked) [Example 197, 2-[(2-Aminoethoxy)methyl]-3-{N-[3-(4-ethoxycarbonyl-4-phenylpiperidin-1-yl)propyl]}carboxamido-1,4-dihydro-6-ethyl-5-methoxycarbonyl-4-(4-nitrophenyl) pyridine] | 45 to 47 °C | 0.55 | 251 | 6310 | –
CC1=C(C(N)=O)C(c2ccc([N+](=O)[O-])cc2)C(C(=O)NCCCN2CCC(C(=O)O)(c3ccccc3)CC2)=C(C)N1 (centres unmarked) [Example 210, 5-Carboxamido-3-{N-[3-(4-carboxy-4-phenylpiperidin-1-yl)propyl]}carboxamido-1,4-dihydro-2,6-dimethyl-4-(4-nitrophenyl)pyridine] | 208 to 210 °C | 93.3 | 72400 | 933 | –
CCC1=C(C(=O)NC)C(c2ccc([N+](=O)[O-])cc2)C(C(=O)NCCCN2CCC(c3ccccc3)(c3ccccc3)CC2)=C(COCCN)N1 (centres unmarked) [Example 225, 2-((2-Aminoethyl)oxy)methyl-6-ethyl-1,4-dihydro-5-N-methylcarboxamido-4-(4-nitro)phenyl-3-(3-(N-(4,4-diphenylpiperidin-1-yl)propyl))carboxamidopyridine] | 115 °C (dec.) | 3.98 | 1620 | 2570 | –
CCC1=C(C(=O)NC)C(c2ccc([N+](=O)[O-])cc2)C(C(=O)NCCCN2CCC(C(=O)OC)(c3ccccc3)CC2)=C(COCCN)N1 (centres unmarked) [Example 229, 2-((2-Aminoethyl)oxy)methyl-6-ethyl-1,4-dihydro-3-(N-(3-(4-methoxycarbonyl-4-phenylpiperidin-1-yl)propyl))carbo xamido-5-N-methylcarboxamido-4-(4-nitro)phenylpyridine] | 95 °C (dec.) | 7.08 | – | – | Ki [1, 3]: 4170 nM; Ki (L-type calcium channel; [5]): 100000 nM
CCNC(=O)C1=C(CC)NC(COCCN)=C(C(=O)NCCCN2CCC(C(=O)OC)(c3ccccc3)CC2)C1c1ccc([N+](=O)[O-])cc1 (centres unmarked) [Example 233, 2-((2-Aminoethyl)oxy)methyl-6-ethyl-5-N-ethylcarboxamido-1,4-dihydro-3-(N-(3-(4-methoxycarbonyl-4-phenylpiperidin-1-yl)propyl))carboxamido-4-(4-nitro)phenylpyridine] | 112 °C (dec.) | 2.14 | 4070 | 257 | –
CCC1=C(C(=O)OC)C(c2ccc([N+](=O)[O-])cc2)C(C(=O)NCCCN2CCC(C(=O)OC)(c3ccccc3)CC2)=C(COCCN)N1 (centres unmarked) [Example 235, 2-((2-Aminoethyl)oxy)methyl-6-ethyl-1,4-dihydro-5-methoxycarbonyl-3-(N-(3-(4-methoxycarbonyl-4-phenylpiperidin-1-yl)propyl))carboxamido-4-(4-nitro)phenylpyridine] | 140 °C (dec.) | 2.09 | 282 | 166000 | –
COC(=O)C1=C(C)NC(C)=C(C(=O)NCCCN2CCC(c3ccccc3)(c3ccccc3)CC2)C1c1cccc([N+](=O)[O-])c1 (centres unmarked) [Example 249, 1,4-Dihydro-3-methoxycarbonyl-2,6-dimethyl-4-(3-nitrophenyl)-5-(N-(3-(4,4-diphenylpiperidin-1-yl)propyl)carboxamido)-pyridine] | 192 to 193 °C | – | – | 30.9 | PKi alpha-1 1a [1]: 6.37; Ki [2, 6]: 0.389 nM
COC(=O)C1=C(C)NC(C)=C(C(=O)NCCCN2CCC(c3ccccc3)CC2)C1c1ccc2c(c1)OCO2 (centres unmarked) [Example 250] | 161 to 165 °C | – | – | – | Ki ([1]; [3H]prazosin, cloned human α1A receptor, LM(tk-) cell membranes, read-out: PKi alpha-1 1a (converted)): 603 nM; Ki [2, 6]: 1.1 nM; Ki (L-type calcium channel; [3H]nitrendipine, rat cardiac muscle membranes, L-type calcium channel, read-out: PKi Ca (converted)): 13200 nM
